Source: paper PMC12216609, “Inhibitors of eIF1A-ribosome interaction unveil uORF-dependent regulation of translation initiation and antitumor and antiviral effects” (The EMBO Journal, 2025)
Values joined by “and” are separate entries in the source; they are usually repeats but may differ in a detail not shown here. Equal values may be shown once. Read-outs that look alike come from different tables or passages of the source.

Experiments:
eIF1A = target: T1, eIF1A (Homo sapiens, UniProt P47813); assay type: binding; details: for fluorescence ratio, eIF1A: background-corrected, relative to DMSO or lowest 1Ai concentration, replicate columns; for WT eIF1A IC50: fluorescence binding
T1 construct: His-bdSUMO (cleaved yes); made in house; host or cells: E. coli BL-21

[1] = tested on: cap-proximal AUG GFP reporter in HEK293T cells; assay type: cell-based; details: GFP WB densitometry; 20 µM overnight; dmso 0.965946;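 note: ratio of upstream to downstream AUG initiation products on GFP Western blot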
eIF1A-RPS10 interaction = target: T2, eIF1A-RPS10 interaction (Homo sapiens, UniProt P46783+P47813); test: Split-Renilla luciferase eIF1A-RPS10 interaction screen, dose-response; assay type: biochemical
T2 construct: made in house; host or cells: E. coli BL21 (PRSFduet); unpurified lysate supernatant
How it was run: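 Split-Renilla readout: eIF1A–RPS10 binding restores luciferase activity. Constructs eIF1A-ΔC-Renilla and RPS10-ΔN-Renilla, E. coli BL21, IPTG 0.5 mM, 16 °C o/n; sonicated lysate supernatants in Tris 10 mM/KCl 100 mM/EDTA 0.1 mM. Renilla fragments alone as controls.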

RPS10 = target: T3, RPS10 (Homo sapiens, UniProt P46783); assay type: binding; details: for RPS10 IC50: fluorescence binding
T3 construct: made in house; host or cells: E. coli BL-21

[2] = summary table, fluorescence binding assay, read-out: IC50 concentration (µM), WT eIF1A
[3] = summary table, read-out: IC50 concentration (µM), IC50 screen
[4] = summary table, fluorescence binding assay
[5] = read-out: IC50 (line under RPS10 binding data)
[6] = summary table, fluorescence binding assay, read-out: IC50 concentration (µM), RPS10

T1 sequence (P47813 whole entry): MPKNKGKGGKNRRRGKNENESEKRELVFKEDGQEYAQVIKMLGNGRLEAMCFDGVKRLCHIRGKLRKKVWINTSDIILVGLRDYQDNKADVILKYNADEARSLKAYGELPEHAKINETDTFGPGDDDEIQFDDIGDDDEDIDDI
T2 sequence (P47813 whole entry, one chain of several): as the sequence (P47813 whole entry) above

| SMILES | fluorescence ratio, eIF1A (eIF1A; 1Ai conc. 0.25 uM) | fluorescence ratio, eIF1A (eIF1A; 1Ai conc. 0.5 uM) | fluorescence ratio, eIF1A (eIF1A; 1Ai conc. 1 uM) | fluorescence ratio, eIF1A (eIF1A; 1Ai conc. 2 uM) | fluorescence ratio, eIF1A (eIF1A; 1Ai conc. 4 uM) | fluorescence ratio, eIF1A (eIF1A; 1Ai conc. 8 uM) | fluorescence ratio, eIF1A (eIF1A; 1Ai conc. 16 uM) | fluorescence ratio, eIF1A (eIF1A; 1Ai conc. 32 uM) | fluorescence ratio, eIF1A (eIF1A; 1Ai conc. 64 uM) | fluorescence ratio, eIF1A (eIF1A; 1Ai conc. 256 uM) | US/DS ratio, average [1] | IC50 (eIF1A-RPS10 interaction; [3]) [µM] | RPS10 fluorescence ratio to control (RPS10; 1Ai conc. 0.25 uM) | RPS10 fluorescence ratio to control (RPS10; 1Ai conc. 0.5 uM) | RPS10 fluorescence ratio to control (RPS10; 1Ai conc. 1 uM) | RPS10 fluorescence ratio to control (RPS10; 1Ai conc. 2 uM) | RPS10 fluorescence ratio to control (RPS10; 1Ai conc. 4 uM) | RPS10 fluorescence ratio to control (RPS10; 1Ai conc. 8 uM) | RPS10 fluorescence ratio to control (RPS10; 1Ai conc. 16 uM) | RPS10 fluorescence ratio to control (RPS10; 1Ai conc. 32 uM) | other results |
| --- | --- | --- | --- | --- | --- | --- | --- | --- | --- | --- | --- | --- | --- | --- | --- | --- | --- | --- | --- | --- | --- |
| CCOc1cc(C(=O)Nc2ccc(Cl)c(-c3nc4ccccc4[nH]3)c2)cc(OCC)c1OCC [1Ai-5677] | 0.8378 and 0.9597 | 0.7937 and 0.9656 | 0.9644 and 1.01 | 1.084 and 0.9877 | 1.028 and 1.008 | 0.9744 and 0.9518 | 1.11 and 0.9262 | 1.565 and 1.017 | 1.663 and 1.113 | 1.623 and 1.122 | 0.4981 | 15 | 1.185 | 1.207 | 1.132 | 1.142 | 1.154 | 1.116 | 1.16 | 1.234 | IC50 (eIF1A; [2]): 24.8 µM; RPS10 fluorescence ratio to control (RPS10; 1Ai conc. 64 uM): 1.307; RPS10 fluorescence ratio to control (RPS10; 1Ai conc. 256 uM): 1.29; RPS10 IC50 (RPS10): No binding; IC50 concentration (µM), RPS10 (RPS10; [4]): No binding |
| O=c1cc(CN2CCOCC2)occ1OCCCCCSc1ccnc2cc(C(F)(F)F)ccc12 [1Ai-5730] | 1.04 and 0.9394 | 1.062 and 0.9801 | 1.0621 and 0.9646 | 1.055 and 0.9796 | 1.077 and 1.03 | 0.8919 and 0.9326 | 0.9465 and 0.9064 | 0.9379 and 0.8516 | 0.7437 and 0.7726 |  | 0.4467 | 24 | 1 | 0.9752 | 0.9984 | 0.9868 | 1.11 | 1.2215 | 1.217 | 1.212 | WT eIF1A IC50 (eIF1A): No binding; IC50 concentration (µM), WT eIF1A (eIF1A; [4]): No binding; IC50 (eIF1A-RPS10 interaction; Appendix Table S1, read-out: IC50 from the split RL screen): 30 µM; RPS10 fluorescence ratio to control (RPS10; 1Ai conc. 256 uM): 1.367; IC50 (RPS10; [5]): 22.1 µM; IC50 (RPS10; read-out: RPS10 IC50): 22.1 µM; IC50 (RPS10; [6]): 22.1 µM |
| Oc1cc(Cl)ccc1Oc1ccc(Cl)cc1Cl [1Ai-6248] | 0.9384 and 1.064 | 0.9722 and 1.055 | 1.006 and 1.027 | 0.9417 and 1.0128 | 0.9205 and 0.9547 | 0.8204 and 0.8224 | 0.7985 and 0.7888 | 0.7283 and 0.6891 | 0.6123 and 0.5776 | 0.937 and 1.038 | 1.042 | 28 | 1.015 | 0.9639 | 0.9786 | 0.9545 | 0.9327 | 0.7864 | 0.7439 | 0.7362 | WT eIF1A IC50 (eIF1A): No binding; IC50 concentration (µM), WT eIF1A (eIF1A; [4]): No binding; RPS10 fluorescence ratio to control (RPS10; 1Ai conc. 64 uM): 0.7781; RPS10 fluorescence ratio to control (RPS10; 1Ai conc. 256 uM): 1.057; RPS10 IC50 (RPS10): No binding; IC50 concentration (µM), RPS10 (RPS10; [4]): No binding |
| Cc1cc(-n2c(C)cc(-c3csc(N)n3)c2C)no1 [1Ai-6464] | 0.9721 and 0.9575 | 1.01 and 0.9713 | 0.9857 | 0.9155 | 0.9236 and 0.8848 | 0.5527 and 0.8172 | 0.5305 and 0.7368 | 0.4838 and 0.639 | 0.4268 and 0.4798 | 0.2524 and 0.2775 | 0.6968 | 13 | 0.9293 | 0.9332 | 0.9643 | 0.9061 | 0.8558 | 0.7733 | 0.6954 | 0.5591 | IC50 (eIF1A; eIF1A, from the titration data, read-out: IC50 (eIF1A titration block)): 21.2 µM; IC50 (eIF1A; [2]): 21.2 µM; RPS10 fluorescence ratio to control (RPS10; 1Ai conc. 64 uM): 0.4769; RPS10 fluorescence ratio to control (RPS10; 1Ai conc. 256 uM): 0.3869; IC50 (RPS10; [5]): 6.4 µM; IC50 (RPS10; read-out: RPS10 IC50): 6.4 µM; IC50 (RPS10; [6]): 6.4 µM |
| Cn1c(=O)c2ccccc2n2c(CNC(c3ccc4c(c3)CCC4)c3cccs3)nnc12 (centres unmarked) [1Ai-7688] | 1.037 and 0.9455 | 1.0637 and 0.9156 | 1.06 and 0.9161 | 1.104 and 0.9936 | 1.1 and 0.9264 | 1.007 and 0.92 | 0.939 and 0.9024 | 0.8822 and 0.9176 | 0.9562 and 1.05 | 1.305 and 1.351 | 0.7504 | 20 | 1.264 | 2.089 | 1.116 | 1.353 | 1.556 | 0.3218 | 0.1412 | 0.0755 | WT eIF1A IC50 (eIF1A): No binding; IC50 concentration (µM), WT eIF1A (eIF1A; [4]): No binding; IC50 (RPS10; [5]): 4.5 µM; IC50 (RPS10; read-out: RPS10 IC50): 4.5 µM; IC50 (RPS10; [6]): 4.5 µM |
| Cc1ccc(C)n1-c1cc([N+](=O)[O-])ccc1N1CCN(C(=O)c2ccccc2)CC1 [1Ai-9008] | 0.8521 and 1 | 0.8814 and 1.016 | 0.8675 and 0.9766 | 1.139 and 0.9182 | 1.153 and 0.9421 | 0.9831 and 0.8499 | 0.926 and 0.7716 | 0.9353 and 0.7367 | 1.131 and 0.7322 | 1.254 and 0.8135 | 0.5847 | 27 | 1 | 0.9583 | 0.9477 | 0.9687 | 0.9804 | 0.9597 | 0.9394 | 1.009 | WT eIF1A IC50 (eIF1A): No binding; IC50 concentration (µM), WT eIF1A (eIF1A; [4]): No binding; RPS10 fluorescence ratio to control (RPS10; 1Ai conc. 256 uM): 1.212; IC50 (RPS10; [5]): 9.9 µM; IC50 (RPS10; read-out: RPS10 IC50): 9.9 µM; IC50 (RPS10; [6]): 9.9 µM |
| O=S(=O)(c1ccccc1)N1CCN(C2c3ccccc3-c3ccccc32)CC1 [1Ai-9025] | 0.9827 and 0.9579 | 0.9655 and 0.9562 | 0.9303 and 0.9366 | 0.9516 and 0.9059 | 0.9297 and 0.9235 | 0.9058 and 0.9493 | 0.9688 and 0.9828 | 0.9874 and 1.077 | 1.153 and 1.164 | 1.25 and 1.3257 | 0.7517 | 17 |  |  |  |  |  |  |  |  | WT eIF1A IC50 (eIF1A): No binding; IC50 concentration (µM), WT eIF1A (eIF1A; [4]): No binding; IC50 (RPS10; [6]): 4.8 µM |
